This note sets out measurements from patent publication US20190016689A1, “NOVEL FLUORINATED QUINAZOLINE DERIVATIVES AS EGFR INHIBITORS” (TRILLIUM THERAPEUTICS INC., priority 2016, published 2019).

Series [1] deals with HL-60(TB). As to the kind of experiment: NCI screening panel (SRB). Conditions: Homo sapiens, HL-60(TB) (Leukemia), 48 h; for CC50: read-out: LC50 (the source's name). In kind it is cell-based.
The subject of series [2] is EKVX. As to the kind of experiment: NCI screening panel (SRB). In kind it is cell-based. The following applies: Homo sapiens, EKVX (NSCLC), 48 h; for CC50: read-out: LC50 (the source's name).
For series [3], the system named is NCI-H460. As to the kind of experiment: NCI screening panel (SRB). In kind it is cell-based. The following applies: Homo sapiens, NCI-H460 (NSCLC), 48 h; for CC50: read-out: LC50 (the source's name).
The test system of series [4] is NCI-H522. As to the kind of experiment: NCI screening panel (SRB). In kind it is cell-based. The following applies: Homo sapiens, NCI-H522 (NSCLC), 48 h; for CC50: read-out: LC50 (the source's name).
Series [5] concerns COLO205. As to the kind of experiment: NCI screening panel (SRB). Conditions: Homo sapiens, COLO 205, COLO205 (Colon), 48 h; for CC50: read-out: LC50 (the source's name). In kind it is cell-based.
Series [6] relates to SW-620. As to the kind of experiment: NCI screening panel (SRB). In kind it is cell-based. The following applies: Homo sapiens, SW-620 (Colon), 48 h; for CC50: read-out: LC50 (the source's name).
In series [7] the test system is SNB-75. As to the kind of experiment: NCI screening panel (SRB). In kind it is cell-based. Conditions: Homo sapiens, SNB-75 (CNS), 48 h; for CC50: read-out: LC50 (the source's name).
Series [8] relates to UACC-62. As to the kind of experiment: NCI screening panel (SRB). In kind it is cell-based. The following applies: Homo sapiens; UACC-62 (Melanoma), 48 h.
For series [9], the system named is IGROV1. As to the kind of experiment: NCI screening panel (SRB). Conditions: Homo sapiens, IGROV-1, IGROV1 (Ovarian), 48 h; for CC50: read-out: LC50 (the source's name). In kind it is cell-based.
In series [10] the test system is OVCAR-4. As to the kind of experiment: NCI screening panel (SRB). In kind it is cell-based. The following applies: Homo sapiens, OVCAR-4 (Ovarian), 48 h; for CC50: read-out: LC50 (the source's name).
Series [11] concerns OVCAR-5. As to the kind of experiment: NCI screening panel (SRB). In kind it is cell-based. The following applies: Homo sapiens, OVCAR-5 (Ovarian), 48 h; for CC50: read-out: LC50 (the source's name).
The subject of series [12] is OVCAR-8. As to the kind of experiment: NCI screening panel (SRB). Conditions: Homo sapiens, OVCAR-8 (Ovarian), 48 h; for CC50: read-out: LC50 (the source's name). In kind it is cell-based.
The test system of series [13] is A498. As to the kind of experiment: NCI screening panel (SRB). In kind it is cell-based. Conditions: Homo sapiens, A498 (Renal), 48 h; for CC50: read-out: LC50 (the source's name).
The subject of series [14] is TK-10. As to the kind of experiment: NCI screening panel (SRB). In kind it is cell-based. The following applies: Homo sapiens, TK-10 (Renal), 48 h; for CC50: read-out: LC50 (the source's name).
The subject of series [15] is T-47D. As to the kind of experiment: NCI screening panel (SRB). The following applies: Homo sapiens, T47D, T-47D (Breast), 48 h; for CC50: read-out: LC50 (the source's name). In kind it is cell-based.
The test system of series [16] is M14. As to the kind of experiment: cells. The following applies: Homo sapiens, M14, 48 h; for CC50: read-out: LC50.
In series [17] the test system is OVCAR-3. As to the kind of experiment: NCI screening panel (SRB). The following applies: Homo sapiens, OVCAR-3, 48 h; for CC50: read-out: LC50.
The target in series [18] is EGFR (E746-A750del) (Homo sapiens, UniProt P00533, DEL746-750). As to the kind of experiment: Kinase assays, selectivity panel (qPCR). The following applies: read-out: % Control @ 300 nM. On the technique in general: In qPCR the cycle at which signal appears reflects the starting amount.
Series [19] concerns the target EGFR (L747-E749del, A750P) (Homo sapiens, UniProt P00533, A750P/DEL747-749). As to the kind of experiment: Kinase assays, selectivity panel (qPCR). Conditions: read-out: % Control @ 300 nM.
Series [20] deals with ERBB2 (Homo sapiens, UniProt P04626). As to the kind of experiment: Kinase assays, selectivity panel (qPCR). The following applies: read-out: % Control @ 300 nM.
Series [21] is described as follows: Chemical stability in PBS pH 7.4. In kind it is physicochemical. Conditions: 37° C. The method, then:
For PBS pH7.4: Prepare 100 mM bulk Na2HPO4 solution and 100 mM bulk NaH2PO4 solution. Place Na2HPO4 solution on a stirrer and slowly add NaH2PO4 solution until the pH is nearly 7.4 (±0.05).
The working solutions of test compound and control compound chlorambucil are prepared in DMSO at the concentration of 500 μM.
Place 2 μL of working solution of each sample in order into their proper 96-well rack. Add 198 μL of pre-incubated PBS pH 7.4 or simulated intestinal fluid into each vial of the cap-less Sample plate to achieve a final concentration of […]. The assay is performed in duplicate. Seal using a molded PTFE/Silicone plug. Then transfer the Sample plate to the Eppendorf Thermomixer Comfort plate shaker and shake at 37° C. at 1100 RPM. Take one of the glass vials at designated time points including 0, 30, 60, 120 and 240 min. For each time point, the initiation of the reaction is staggered so all time points are terminated with 1000 μL of cold quench solution (acetonitrile containing internal standards (IS, 200 nM Labetalol, 100 nM Alprazolam and 2 μM Ketoprofen) at the same time. Vortex for 1 minute. Centrifuge the samples in plate at 3,220 g for 5 minutes at 4° C. Transfer 100 μL of the supernatant to a new plate. The supernatant may be diluted with 100 μL or 200 μL water according to the LC/MS signal response and peak shape. Mix well and analyze samples using LC/MS/MS.

Chain of EGFR (E746-A750del) (P00533 with tags, fused parts or gaps DEL746-750): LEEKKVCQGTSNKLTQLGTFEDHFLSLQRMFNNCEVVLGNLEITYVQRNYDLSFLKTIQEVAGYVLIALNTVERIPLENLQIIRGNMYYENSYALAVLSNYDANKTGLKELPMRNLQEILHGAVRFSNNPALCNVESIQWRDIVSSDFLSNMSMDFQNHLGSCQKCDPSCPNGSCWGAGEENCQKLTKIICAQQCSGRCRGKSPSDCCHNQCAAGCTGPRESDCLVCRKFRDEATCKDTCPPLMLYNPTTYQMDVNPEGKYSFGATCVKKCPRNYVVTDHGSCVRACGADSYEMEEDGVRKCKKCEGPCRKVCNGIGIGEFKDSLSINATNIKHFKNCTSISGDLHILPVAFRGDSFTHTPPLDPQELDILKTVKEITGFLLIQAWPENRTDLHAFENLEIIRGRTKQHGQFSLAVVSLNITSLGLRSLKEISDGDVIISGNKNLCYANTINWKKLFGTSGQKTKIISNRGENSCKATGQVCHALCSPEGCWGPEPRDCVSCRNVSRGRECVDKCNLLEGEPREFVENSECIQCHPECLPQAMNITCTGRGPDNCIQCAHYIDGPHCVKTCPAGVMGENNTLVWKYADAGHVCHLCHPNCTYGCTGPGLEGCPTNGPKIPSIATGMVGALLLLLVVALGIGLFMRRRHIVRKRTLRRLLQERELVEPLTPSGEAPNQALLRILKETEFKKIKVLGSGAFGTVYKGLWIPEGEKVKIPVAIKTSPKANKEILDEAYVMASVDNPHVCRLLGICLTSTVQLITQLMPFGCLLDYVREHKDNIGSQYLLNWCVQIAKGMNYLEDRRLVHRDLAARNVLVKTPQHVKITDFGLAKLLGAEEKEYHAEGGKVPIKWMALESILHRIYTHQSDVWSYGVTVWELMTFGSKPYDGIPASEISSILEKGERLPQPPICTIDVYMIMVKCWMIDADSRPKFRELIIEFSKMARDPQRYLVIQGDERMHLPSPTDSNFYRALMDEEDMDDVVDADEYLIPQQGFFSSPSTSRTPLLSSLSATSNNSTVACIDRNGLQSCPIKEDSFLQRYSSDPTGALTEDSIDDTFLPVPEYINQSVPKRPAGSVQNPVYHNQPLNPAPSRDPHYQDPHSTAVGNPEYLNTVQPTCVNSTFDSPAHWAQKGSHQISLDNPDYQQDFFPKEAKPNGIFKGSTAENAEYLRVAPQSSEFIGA
Chain of ERBB2 (P04626 23-1255): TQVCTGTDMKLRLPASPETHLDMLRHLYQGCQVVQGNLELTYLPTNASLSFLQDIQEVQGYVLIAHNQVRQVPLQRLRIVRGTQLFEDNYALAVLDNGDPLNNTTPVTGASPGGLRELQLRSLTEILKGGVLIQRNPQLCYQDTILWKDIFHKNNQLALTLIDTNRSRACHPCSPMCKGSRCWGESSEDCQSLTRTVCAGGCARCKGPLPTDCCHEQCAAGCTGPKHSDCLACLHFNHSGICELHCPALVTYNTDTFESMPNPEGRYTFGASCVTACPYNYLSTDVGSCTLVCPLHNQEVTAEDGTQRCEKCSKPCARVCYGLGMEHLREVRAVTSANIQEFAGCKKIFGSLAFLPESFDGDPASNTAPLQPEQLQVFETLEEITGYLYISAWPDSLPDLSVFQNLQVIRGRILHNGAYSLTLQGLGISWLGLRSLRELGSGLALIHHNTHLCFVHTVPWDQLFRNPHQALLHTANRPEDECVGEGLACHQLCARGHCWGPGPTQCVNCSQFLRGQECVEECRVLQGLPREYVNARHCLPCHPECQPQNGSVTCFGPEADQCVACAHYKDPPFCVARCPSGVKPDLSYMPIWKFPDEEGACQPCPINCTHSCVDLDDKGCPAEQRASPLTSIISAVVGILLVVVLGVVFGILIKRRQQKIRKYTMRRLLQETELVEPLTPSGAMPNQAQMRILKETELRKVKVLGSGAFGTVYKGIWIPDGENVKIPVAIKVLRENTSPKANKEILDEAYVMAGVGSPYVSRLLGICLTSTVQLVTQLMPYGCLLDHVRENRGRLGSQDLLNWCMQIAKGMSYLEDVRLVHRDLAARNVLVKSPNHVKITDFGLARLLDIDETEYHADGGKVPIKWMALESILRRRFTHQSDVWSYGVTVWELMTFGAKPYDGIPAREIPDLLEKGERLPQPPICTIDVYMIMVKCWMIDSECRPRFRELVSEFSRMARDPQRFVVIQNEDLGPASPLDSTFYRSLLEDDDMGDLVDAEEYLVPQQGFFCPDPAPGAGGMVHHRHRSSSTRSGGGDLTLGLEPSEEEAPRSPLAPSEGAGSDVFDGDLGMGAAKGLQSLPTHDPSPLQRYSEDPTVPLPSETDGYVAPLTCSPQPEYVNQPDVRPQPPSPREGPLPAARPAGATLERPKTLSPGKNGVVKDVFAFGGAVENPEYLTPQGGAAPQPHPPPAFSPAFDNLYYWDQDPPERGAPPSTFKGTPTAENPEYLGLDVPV
Chain of EGFR (L747-E749del, A750P) (P00533 with tags, fused parts or gaps DEL747-749/A750P): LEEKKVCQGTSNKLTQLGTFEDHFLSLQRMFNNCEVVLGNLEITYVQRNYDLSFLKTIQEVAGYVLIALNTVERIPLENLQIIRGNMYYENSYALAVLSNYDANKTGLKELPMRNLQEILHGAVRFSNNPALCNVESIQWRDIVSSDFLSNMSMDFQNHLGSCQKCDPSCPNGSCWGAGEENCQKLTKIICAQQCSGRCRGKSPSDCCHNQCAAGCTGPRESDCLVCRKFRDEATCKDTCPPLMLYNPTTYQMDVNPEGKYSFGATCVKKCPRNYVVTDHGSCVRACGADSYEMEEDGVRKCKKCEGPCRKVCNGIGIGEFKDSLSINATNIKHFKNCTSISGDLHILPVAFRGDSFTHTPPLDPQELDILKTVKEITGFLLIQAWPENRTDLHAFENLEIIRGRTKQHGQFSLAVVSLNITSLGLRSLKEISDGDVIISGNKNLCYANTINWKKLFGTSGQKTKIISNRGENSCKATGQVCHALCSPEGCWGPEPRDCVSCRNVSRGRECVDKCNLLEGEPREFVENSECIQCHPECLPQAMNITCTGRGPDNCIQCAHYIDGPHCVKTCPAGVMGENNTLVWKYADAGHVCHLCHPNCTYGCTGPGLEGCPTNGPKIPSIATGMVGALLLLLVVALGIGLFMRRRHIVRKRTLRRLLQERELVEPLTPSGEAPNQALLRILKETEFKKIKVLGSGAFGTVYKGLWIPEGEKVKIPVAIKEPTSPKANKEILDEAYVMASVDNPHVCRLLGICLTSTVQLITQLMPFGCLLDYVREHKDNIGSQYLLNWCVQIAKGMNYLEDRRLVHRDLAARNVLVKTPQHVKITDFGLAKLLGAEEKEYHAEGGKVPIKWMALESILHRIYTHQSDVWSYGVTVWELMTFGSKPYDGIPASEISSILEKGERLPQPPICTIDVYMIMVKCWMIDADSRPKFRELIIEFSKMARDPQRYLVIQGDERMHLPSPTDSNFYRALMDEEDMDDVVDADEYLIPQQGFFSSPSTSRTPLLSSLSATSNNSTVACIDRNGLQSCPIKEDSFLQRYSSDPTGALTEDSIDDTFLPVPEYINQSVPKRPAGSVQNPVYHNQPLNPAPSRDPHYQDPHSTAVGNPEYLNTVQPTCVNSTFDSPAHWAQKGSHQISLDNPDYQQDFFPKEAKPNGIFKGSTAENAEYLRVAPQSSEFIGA

Turning to `CN(C)C/C=C/C(=O)Nc1cc2c(Nc3ccc(F)c(Cl)c3F)ncnc2cc1OCCOC(F)F.O=C(O)/C=C\C(=O)O.O=C(O)/C=C\C(=O)O` [Example I-9-MA, (E)-N-[4-(3-chloro-2,4-difluoro-anilino)-7-[2-(difluoromethoxy)ethoxy]quinazolin-6-yl]-4-(dimethylamino)but-2-enamide di-maleic acid salt], the GI50 in series [1] is 1.73 µM; in series [2], < 0.01 µM; in series [3], 2.56 µM; in series [4], < 0.01 µM; in series [5], 1.23 µM; in [6], 1.52 µM. The concentration for 50% growth inhibition (GI50) in series [7] is 0.129 µM; in series [8] it was 1.49 µM; in series [9], < 0.01 µM; in series [10], 0.999 µM; in [11] it was 0.141 µM; in [12] it was 1.09 µM. Also, the GI50 in series [13] was 0.319 µM; in [14], < 0.01 µM; in [15], < 0.01 µM; in series [16], 1.44 µM; in series [17], 0.0811 µM. The CC50 in series [1] turned out to be 32.2 µM; in series [2], 19.6 µM; in series [3], 62 µM; in series [4] it was 9.17 µM; in series [5], 31.7 µM; in [6], 52.7 µM. The CC50 in series [7] was found to be 23.6 µM; in [9], 32.5 µM; in [10] it was 32.4 µM; in series [11], 47.9 µM; in [12], 32.7 µM; in series [13] it was 6 µM. Also, the CC50 in series [14] was determined as 21.8 µM; in [15] it was 88.1 µM; in [16], 11 µM; in series [17], 7.44 µM. In series [8], this compound came in with an LC50 of 9.95 µM. Also, the remaining activity at 0.3 µM in series [18] was 3.6%; in series [19], 0.45%; in series [20], 0%.

In the case of `O=C(/C=C/CN1CCCCC1)Nc1cc2c(Nc3ccc(F)c(Cl)c3F)ncnc2cc1OCCOC(F)F.O=C(O)/C=C\C(=O)O.O=C(O)/C=C\C(=O)O` [Example I-10-MA, (E)-N-[4-(3-chloro-2,4-difluoro-anilino)-7-[2-(difluoromethoxy)ethoxy]quinazolin-6-yl]-4-(1-piperidyl)but-2-enamide di-maleic acid salt], the GI50 in [1] is 1.75 µM; in series [2], 0.0347 µM; in series [3] it was 2.34 µM; in series [4], 0.0559 µM; in series [5] it was 1.74 µM; in series [6], 1.81 µM. Moreover, the GI50 in series [7] was found to be 0.274 µM; in series [8] it was 1.79 µM; in series [9], 0.0331 µM; in [10], 1.31 µM; in series [11], 0.776 µM; in series [12] it was 1.35 µM. The GI50 is 0.313 µM in series [13]; < 0.01 µM in [14]; 0.0814 µM in series [15]; 1.82 µM in series [16]; 0.39 µM in [17]. The CC50 was 30.8 µM in series [1]; 23.9 µM in series [2]; 54.4 µM in series [3]; 7.8 µM in series [4]; > 100 µM in [5]; 34.7 µM in [6]. Besides, the CC50 in [7] is 31 µM; in series [9], > 100 µM; in [10], 59.9 µM; in [11], 67.1 µM; in series [12] it was > 100 µM; in series [13], 5.92 µM. Besides, the CC50 is 35.1 µM in series [14], > 100 µM in series [15], > 100 µM in series [16] and 16.8 µM in [17]. The compound also came in with a median lethal concentration (LC50) in series [8] of 20.5 µM. The remaining activity at 0.3 µM in series [18] turned out to be 2.7%; in series [19], 0.9%; in series [20] it was 0.05%.

Take `CN(C)C/C=C/C(=O)Nc1cc2c(Nc3cccc(Cl)c3F)ncnc2cc1OCCOC(F)F.O=C(O)/C=C\C(=O)O` [Example I-5-MA, (E)-N-[4-(3-chloro-2-fluoro-anilino)-7-[2-(difluoromethoxy)ethoxy]quinazolin-6-yl]-4-(dimethylamino)but-2-enamide dimaleic acid salt]: the “Remaining Percentage (%) in PBS at pH 7.4” value is listed as 94.70% in series [21] (120 min) and 91.17% in series [21] (240 min).

On to `CN(C)C/C=C/C(=O)Nc1cc2c(Nc3ccc(F)c(Cl)c3)ncnc2cc1O[C@H]1CCOC1` [Afatinib, reference compound], for which the “Remaining Percentage (%) in PBS at pH 7.4” value in series [21] (120 min) stood at 101.12%; in series [21] (240 min), 105.37%.

For orientation: GI50 means the concentration that inhibits growth by half. Usually LC50 stands for the concentration that kills 50% of the test population. Higher therefore signals a less lethal substance.
